Experiments:
[1] = molecular target: Sodium-dependent serotonin transporter (Rattus norvegicus, UniProt P31652); assay: Displacement of [3H]citalopram from SERT in rat brain stem by scintillation counting; type: tissue-based
Transporter = Transporter (Rattus norvegicus, UniProt Q63380); assay: Displacement of [3H]nisoxetine from NET in rat frontal cortex by scintillation counting; type: tissue-based
[2] = molecular target: Sodium-dependent dopamine transporter (Rattus norvegicus, UniProt P23977); assay: Displacement of [3H]WIN-35428 from DAT in rat caudate-putamen by scintillation counting; type: tissue-based
Sodium-dependent dopamine transporter, sequence (P23977 whole entry): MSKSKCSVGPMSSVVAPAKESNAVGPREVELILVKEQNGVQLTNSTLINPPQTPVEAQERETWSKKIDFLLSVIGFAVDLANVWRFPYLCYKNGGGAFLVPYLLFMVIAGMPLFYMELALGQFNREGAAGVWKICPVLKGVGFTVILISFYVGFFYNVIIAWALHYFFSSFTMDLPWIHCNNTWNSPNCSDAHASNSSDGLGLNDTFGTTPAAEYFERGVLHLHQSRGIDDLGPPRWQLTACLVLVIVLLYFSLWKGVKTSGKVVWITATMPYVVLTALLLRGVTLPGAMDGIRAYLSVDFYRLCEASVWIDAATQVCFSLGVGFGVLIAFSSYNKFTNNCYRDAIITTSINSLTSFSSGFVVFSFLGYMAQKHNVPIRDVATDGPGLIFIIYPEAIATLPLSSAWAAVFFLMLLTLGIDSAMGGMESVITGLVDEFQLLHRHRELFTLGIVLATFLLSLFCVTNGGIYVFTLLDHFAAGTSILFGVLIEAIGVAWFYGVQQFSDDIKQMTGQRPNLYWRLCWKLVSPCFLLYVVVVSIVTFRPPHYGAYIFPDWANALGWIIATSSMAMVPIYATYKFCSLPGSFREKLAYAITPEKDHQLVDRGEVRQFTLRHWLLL

Rattus norvegicus [3] = species on record: Rattus norvegicus; assay: Selectivity ratio of Ki for NET in rat brain frontal cortex to Ki for SERT in rat brain stem; type: tissue-based
Rattus norvegicus [4] = species on record: Rattus norvegicus; assay: Selectivity ratio of Ki for DAT in rat caudate-putamen to Ki for SERT in rat brain stem; type: tissue-based
[5] = Displacement of [3H]leucine from Leucine transporter

Sodium-dependent serotonin transporter, sequence (P31652 whole entry): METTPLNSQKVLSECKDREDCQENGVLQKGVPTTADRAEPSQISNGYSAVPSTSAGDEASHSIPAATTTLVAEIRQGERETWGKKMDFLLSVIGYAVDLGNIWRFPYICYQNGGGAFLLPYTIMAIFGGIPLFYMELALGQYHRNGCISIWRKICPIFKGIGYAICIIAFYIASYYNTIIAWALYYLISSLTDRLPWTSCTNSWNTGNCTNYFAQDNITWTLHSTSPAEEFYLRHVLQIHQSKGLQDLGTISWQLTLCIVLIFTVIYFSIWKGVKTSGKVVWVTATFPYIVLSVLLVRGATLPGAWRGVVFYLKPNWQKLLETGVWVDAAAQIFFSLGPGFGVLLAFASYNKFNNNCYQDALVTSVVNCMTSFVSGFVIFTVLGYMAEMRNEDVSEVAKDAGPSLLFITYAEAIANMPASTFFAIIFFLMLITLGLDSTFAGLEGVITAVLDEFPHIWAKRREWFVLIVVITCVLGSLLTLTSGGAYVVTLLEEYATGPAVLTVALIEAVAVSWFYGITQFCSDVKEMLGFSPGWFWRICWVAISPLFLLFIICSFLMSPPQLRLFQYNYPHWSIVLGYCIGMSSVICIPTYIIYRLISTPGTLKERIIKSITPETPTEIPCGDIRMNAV
Transporter, sequence (Q63380 whole entry): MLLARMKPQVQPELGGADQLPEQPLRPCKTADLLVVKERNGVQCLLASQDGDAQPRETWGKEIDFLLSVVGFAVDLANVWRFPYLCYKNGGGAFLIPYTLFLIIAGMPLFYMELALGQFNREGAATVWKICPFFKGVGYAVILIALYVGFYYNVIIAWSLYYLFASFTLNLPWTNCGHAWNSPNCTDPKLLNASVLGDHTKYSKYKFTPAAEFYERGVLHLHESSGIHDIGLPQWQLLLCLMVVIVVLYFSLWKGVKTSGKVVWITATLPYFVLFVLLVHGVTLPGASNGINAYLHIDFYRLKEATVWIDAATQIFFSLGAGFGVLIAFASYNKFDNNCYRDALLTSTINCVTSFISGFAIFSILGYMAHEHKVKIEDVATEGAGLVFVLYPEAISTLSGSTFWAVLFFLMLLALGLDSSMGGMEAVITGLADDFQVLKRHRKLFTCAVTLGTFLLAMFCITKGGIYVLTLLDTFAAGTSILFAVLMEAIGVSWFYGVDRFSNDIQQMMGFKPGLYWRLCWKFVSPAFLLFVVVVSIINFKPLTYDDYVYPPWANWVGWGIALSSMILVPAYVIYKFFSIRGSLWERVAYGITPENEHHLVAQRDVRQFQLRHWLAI

Row | Structure (SMILES) | Ki [1] | Ki (Transporter) | Ki [2] | Ratio Ki (Rattus norvegicus [3]) | Ratio Ki (Rattus norvegicus [4]) | IC50 [5]
1 | CN(C)CCCC1(c2ccc(F)cc2)OCc2cc(/C=C/c3ccccc3)ccc21 (racemic) | 0.00932 µM | 11.4 µM | 0.836 µM | 1220 | 90 | 
2 | CN(C)CCCC1(c2ccc(F)cc2)OCc2cc(Br)ccc21 (racemic) | 0.00104 µM | 28.4 µM |  |  |  | 
3 | CN(C)CCCC1(c2ccc(F)cc2)OCc2cc(-c3cccc(Cl)c3)ccc21 (configuration not stated) | 0.0612 µM | 5.71 µM | 1.39 µM | 93 | 23 | 
4 | CN(C)CCCC1(c2ccc(F)cc2)OCc2cc(-c3ccccc3)ccc21 (configuration not stated) | 0.04 µM | 16.9 µM | 1.8 µM | 423 | 45 | 
5 | CN(C)CCC[C@]1(c2ccc(F)cc2)OCc2cc(/C=C/c3ccccc3)ccc21 | 0.113 µM | 5.19 µM | 0.541 µM | 46 | 4.79 | 
6 | CN(C)CCCC1(c2ccc(F)cc2)OCc2cc(-c3cccc(C#N)c3)ccc21 (configuration not stated) | 0.0067 µM | 4.98 µM | 0.737 µM | 743 | 110 | 
7 | CN(C)CCCC1(c2ccc(F)cc2)OCc2c(Br)cccc21 (configuration not stated) | 0.00387 µM | 6.17 µM | 0.216 µM | 1590 | 56 | 
8 | CN(C)CCCC1(c2ccc(F)cc2)OCc2c(-c3ccccc3)cccc21 (configuration not stated) | 0.00507 µM | 7.16 µM | 0.542 µM | 1410 | 107 | 
9 | CN(C)CCCC1(c2ccc(F)cc2)OCc2cc(-c3cc(F)cc(F)c3)ccc21 (configuration not stated) | 0.108 µM | 2 µM |  |  |  | 
10 | CN(C)CCCC1(c2ccc(F)cc2)OCc2cc(/C=C/c3ccc(Cl)cc3)ccc21 (configuration not stated) | 0.0336 µM | 25.1 µM | 2 µM | 747 | 60 | 
11 | COc1cccc(-c2ccc3c(c2)COC3(CCCN(C)C)c2ccc(F)cc2)c1 (configuration not stated) | 0.0092 µM | 2.61 µM |  |  |  | 
12 | CN(C)CCC[C@]1(c2ccc(F)cc2)OCc2cc(Br)ccc21 | 0.0236 µM | 21.6 µM | 1.35 µM | 915 | 57 | 420 µM
13 | CN(C)CCCC1(c2ccc(F)cc2)OCc2cc(CCc3ccccc3)ccc21 (configuration not stated) | 0.0381 µM | 4.63 µM |  |  |  | 
14 | CN(C)CCC[C@@]1(c2ccc(F)cc2)OCc2cc(/C=C/c3ccccc3)ccc21 | 0.0106 µM | 16.8 µM | 1.81 µM | 1590 | 171 | 
15 | CN(C)CCC[C@@]1(c2ccc(F)cc2)OCc2cc(C#N)ccc21 [ESCITALOPRAM] |  |  |  |  |  | 1560 µM
16 | CN(C)CCCC1(c2ccc(F)cc2)OCc2c(/C=C/c3ccccc3)cccc21 (configuration not stated) | 0.0464 µM | 11.9 µM | 1.14 µM | 256 | 25 | 
17 | CN(C)CCCC1(c2ccc(F)cc2)OCc2cc(I)ccc21 (configuration not stated) | 0.00142 µM |  | 1.35 µM |  |  | 
18 | CN(C)CCC[C@@]1(c2ccc(F)cc2)OCc2cc(Br)ccc21 | 0.00092 µM | 8.41 µM | 2.25 µM | 9140 | 2450 | 400 µM
19 | CN(C)CCCC1(c2ccc(F)cc2)OCc2cc(-c3cccc(N)c3)ccc21 (configuration not stated) | 0.0104 µM |  | 1.69 µM |  |  | 
20 | CN(C)CCCC1(c2ccc(F)cc2)OCc2c(-c3cccc(F)c3)cccc21 (configuration not stated) | 0.00822 µM | 7.67 µM | 0.49 µM | 933 | 60 | 
21 | CN(C)CCCC1(c2ccc(F)cc2)OCc2cc(-c3cccc(F)c3)ccc21 (configuration not stated) | 0.0218 µM | 4.2 µM |  |  |  | 
22 | CN(C)CCCC1(c2ccc(F)cc2)OCc2cc(-c3ccc(Cl)c(Cl)c3)ccc21 (configuration not stated) | 0.143 µM | 12.7 µM | 2.51 µM | 89 | 18 | 

Source: ChEMBL document CHEMBL1212898 (J Med Chem, 2010)
